The results in this text go back to patent publication US9770026B2, “Substituted pyrimidine compound and uses thereof” (Shenyang Sinochem Agrochemicals R&D Co., Ltd., priority 2012, dated 2017).

Like-named read-outs stand apart in the source and are kept apart here.

One assay relates to carmine spider mite. Briefly: bioactivity test against carmine spider mite, airbrush spray. The note with it: for pest or weed control at 10 µg/mL / pest or weed control at 100 µg/mL / pest or weed control at 600 µg/mL: read-out: Insecticidal activity against carmine spider mite (% ). It is filed as in vivo. In outline:
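Broadbean seedlings infested with adult mites were sprayed with compound (acetone/methanol stock diluted in 0.1% Tween 80 water) by airbrush at 0.7 kg/cm^2, 0.5 ml. Three replicates were run. Mortality was scored after 72 hrs.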

Assay [1] has as its system Green peach aphids (Myzus Persicae Sulzer). The assay is described as follows: bioactivity test against green peach aphid, airbrush foliar spray. The note with it: Myzus persicae, foliar, 48 h. It is filed as in vivo. In outline:
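Aphids (15-30 per cabbage leaf disc) on moist filter paper were airbrush-sprayed at 10 psi, 0.5 mL, with compound from acetone:methanol (1:1) diluted in water with 0.1% tween 80. Held at 25±1 C, 60±5% RH; survivors counted after 48 hrs to give death rates.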

The subject of the next assay is cucumber gray mold. Briefly: fungicidal activity in vitro (inhibition rate) against cucumber gray mold. It is filed as cell-based. The note with it: read-out: inhibition rate against cucumber gray mold.
A further assay deals with cucumber downy mildew. The assay is described as follows: protectant activity in vivo against cucumber downy mildew. The note with it: Cucumis sativus, 168 h; for pest or weed control at 25 µg/mL: read-out: control effect against cucumber downy mildew (%), 25 mg/L; for pest or weed control at 50 µg/mL: read-out: control effect against cucumber downy mildew (%), 50 mg/L; for pest or weed control at 100 µg/mL: read-out: control effect against cucumber downy mildew (%), 100 mg/L.

The test system of the next assay is armyworm. The assay is described as follows: bioactivity test against armyworm, airbrush spray. It is filed as in vivo. The note with it: 72 h; for pest or weed control at 600 µg/mL: 600 mg/L.
The subject of the next assay is corn rust. The assay is described as follows: protectant activity in vivo against corn rust. The note with it: Zea mays, 168 h; for pest or weed control at 6.25 µg/mL: read-out: control effect against corn rust (%), 6.25 mg/L; for pest or weed control at 6.25 µg/mL / pest or weed control at 25 µg/mL / pest or weed control at 100 µg/mL / pest or weed control at 400 µg/mL: protectant activity; for pest or weed control at 25 µg/mL: read-out: control effect against corn rust (%), 25 mg/L; for pest or weed control at 100 µg/mL: read-out: control effect against corn rust (%), 100 mg/L; for pest or weed control at 400 µg/mL: read-out: control effect against corn rust (%), 400 mg/L.

The test system of the next assay is wheat powdery mildew. The assay is described as follows: protectant activity in vivo against wheat powdery mildew. The note with it: Triticum aestivum, 168 h; for pest or weed control at 100 µg/mL: read-out: control effect against wheat powdery mildew (%), 100 mg/L; for pest or weed control at 400 µg/mL: read-out: control effect against wheat powdery mildew (%), 400 mg/L.

For another assay, the system named is rice blast. The assay is described as follows: microbe, parasite or virus in culture. It is filed as cell-based. The note with it: Pyricularia oryzae, read-out: inhibition rate against rice blast, 25 ppm, in vitro.
The test system of the next assay is Diamond back moth. The assay is described as follows: insecticidal activity against diamond back moth, airbrush spray. It is filed as in vivo. The conditions noted are these: 72 h; for pest or weed control at 600 µg/mL: 600 mg/L. In outline:
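Airbrush leaf-disc spray test: both faces of 2 cm cabbage discs received 0.5 ml of test solution at 0.7 kg/cm^2. Solutions were made in acetone:methanol (1:1) and brought to concentration with 0.1% Tween 80 in water. Ten second-instar larvae per disc, triplicates, were held at 25° C and 60˜70% R.H., with mortality recorded at 72 hrs.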

The mark [2] stands for this setting: read-out: Insecticidal activity against peach aphid (%).
[3] abbreviates: Tetranychus cinnabarinus, 72 h, 10 mg/L, contrastive test.
The mark [4] stands for this setting: Tetranychus cinnabarinus, 72 h, 100 mg/L, contrastive test.
Where [5] appears, read: Tetranychus cinnabarinus, 72 h, 600 mg/L, contrastive test.
[6] abbreviates: 10 mg/L, contrastive test, read-out: Insecticidal activity against peach aphid (%).
Where [7] appears, read: 100 mg/L, contrastive test, read-out: Insecticidal activity against peach aphid (%).
Where [8] appears, read: 600 mg/L, contrastive test, read-out: Insecticidal activity against peach aphid (%).
Where [9] appears, read: read-out: Insecticidal activity against armyworm (%).
Setting [10] is: read-out: control effect against cucumber downy mildew (%), 400 mg/L, protectant activity.

For orientation: inhibition means the relative decrease from the control value, in per cent.

`CC(F)c1ncnc(NCCc2ccc(OC(F)(F)F)cc2)c1Cl` (centres unmarked) [flufenerim, reference compound]: in the assay on carmine spider mite (Tetranychus cinnabarinus, 72 h), the pest or weed control at 10 µg/mL was determined as 72%, the pest or weed control at 100 µg/mL was found to be 100% and the pest or weed control at 600 µg/mL was 100%. In addition, in assay [1] (setting [2]), the pest or weed control at 1.25 µg/mL was 37%, the pest or weed control at 2.5 µg/mL turned out to be 90%, the pest or weed control at 5 µg/mL is 100% and the pest or weed control at 10 µg/mL turned out to be 100%. In assay [1] (setting [2]), the pest or weed control at 100 µg/mL worked out at 100% and the pest or weed control at 600 µg/mL came to 100%. Further, the inhibition at 25 ppm in the assay on cucumber gray mold was 0%. Besides, in the assay on cucumber downy mildew (read-out: control effect against cucumber downy mildew (%)), the pest or weed control at 400 µg/mL came to 0%.
As for `CC(Cl)c1ncnc(NCCc2ccc(Oc3ccc(C(F)(F)F)cn3)cc2)c1Cl` (centres unmarked) [CK24, reference compound], the “Insecticidal activity against carmine spider mite (% )” value in the assay with carmine spider mite (2.5 mg/L) came to 5%; in the assay on carmine spider mite (5 mg/L), 15%. Moreover, the pest or weed control at 10 µg/mL was determined as 85% with carmine spider mite (setting [3]); 89% in [1] (setting [6]); 0% in the assay with armyworm (10 mg/L, read-out: Insecticidal activity against armyworm (%)). The pest or weed control at 100 µg/mL in the assay with carmine spider mite (setting [4]) amounted to 100%; in assay [1] (setting [7]), 100%; in the assay with corn rust it was 50%; in the assay with wheat powdery mildew (protectant activity) it was 0%. In addition, the pest or weed control at 600 µg/mL (in the assay on carmine spider mite (setting [5]); in assay [1] (setting [8])) was 100% in each case. The pest or weed control at 2.5 µg/mL in assay [1] (2.5 mg/L, contrastive test, read-out: Insecticidal activity against peach aphid (%)) came out at 0%. In addition, the pest or weed control at 5 µg/mL in assay [1] (5 mg/L, contrastive test, read-out: Insecticidal activity against peach aphid (%)) came to 28%. Moreover, in the assay with cucumber gray mold (25 ppm, in vitro), the inhibition at 25 ppm is less than 50%. Moreover, in the assay with corn rust, the pest or weed control at 6.25 µg/mL came to 0%. Also, the pest or weed control at 25 µg/mL with corn rust is 20%. The pest or weed control at 400 µg/mL with corn rust is 100%; in the assay with wheat powdery mildew (protectant activity), 0%.
In the case of `Cc1ncnc(NCc2ccc(Oc3ncc(Cl)cc3Cl)cc2)c1Cl` [CK37, reference compound], the pest or weed control at 600 µg/mL is 0% with carmine spider mite (setting [5]), 100% in assay [1] (setting [8]), 0% in the assay on Diamond back moth and 0% in the assay on armyworm (setting [9]). Besides, the inhibition at 25 ppm with rice blast is less than 50%. In addition, in assay [1] (setting [6]), the pest or weed control at 10 µg/mL was 0%. The pest or weed control at 100 µg/mL in [1] (setting [7]) was found to be 16%; with cucumber downy mildew (protectant activity) it was 20%. The pest or weed control at 400 µg/mL in the assay with corn rust is 0%; in the assay with wheat powdery mildew (protectant activity), 0%; with cucumber downy mildew (setting [10]), 100%. Besides, in the assay on cucumber downy mildew (protectant activity), the pest or weed control at 25 µg/mL was 0%. Besides, in the assay on cucumber downy mildew (protectant activity), the pest or weed control at 50 µg/mL turned out to be 10%.
In the case of `CC(Cl)c1ncnc(NCCc2ccc(Oc3ccc(Cl)nn3)cc2)c1Cl` (centres unmarked) [CK62, reference compound], the pest or weed control at 600 µg/mL in the assay with carmine spider mite (setting [5]) was determined as 0%. Also, the inhibition at 25 ppm in the assay with cucumber gray mold (25 ppm, in vitro) was less than 50%. Besides, the pest or weed control at 400 µg/mL in the assay with cucumber downy mildew (setting [10]) was 80%.
`CCc1ncnc(NCc2ccc(Oc3ccc(C(F)(F)F)cc3)cc2)c1Cl` [CK54, reference compound]: the pest or weed control at 10 µg/mL in [1] (setting [6]) worked out at 34%. For the same molecule, the pest or weed control at 100 µg/mL in assay [1] (setting [7]) came to 100%; in the assay with corn rust it was 60%; in the assay with cucumber downy mildew (protectant activity), 90%. For the same molecule, the pest or weed control at 600 µg/mL in assay [1] (setting [8]) was 100%; in the assay on armyworm (setting [9]), 67%. For the same molecule, the inhibition at 25 ppm in the assay on cucumber gray mold (25 ppm, in vitro) is 0%. The pest or weed control at 6.25 µg/mL with corn rust turned out to be 0%. For the same molecule, the values for the pest or weed control at 25 µg/mL in the assay on corn rust and with cucumber downy mildew (protectant activity) were 30% and 65%, respectively. Further, the pest or weed control at 400 µg/mL in the assay with corn rust and in the assay on cucumber downy mildew (setting [10]) was 100% in each case. Further, the pest or weed control at 50 µg/mL in the assay on cucumber downy mildew (protectant activity) stood at 80%.
As for `CC(Cl)c1ncnc(NCc2ccc(Oc3ccc(C(F)(F)F)cn3)cc2)c1Cl` (centres unmarked) [CK43, reference compound], the pest or weed control at 10 µg/mL in the assay with carmine spider mite (setting [3]) is 16%. In addition, the pest or weed control at 100 µg/mL in the assay on carmine spider mite (setting [4]) was determined as 29%; in the assay with cucumber downy mildew (protectant activity), 40%. For the same molecule, the pest or weed control at 600 µg/mL with carmine spider mite (setting [5]) was 74%; in [1] (setting [8]), 0%; with Diamond back moth, 0%; with armyworm (setting [9]), 0%. Also, the inhibition at 25 ppm in the assay on rice blast was less than 50%. The pest or weed control at 400 µg/mL in the assay on corn rust is 85%; in the assay with wheat powdery mildew (protectant activity) it was 20%; with cucumber downy mildew (setting [10]), 100%. In addition, the pest or weed control at 25 µg/mL in the assay on cucumber downy mildew (protectant activity) amounted to 0%. In addition, the pest or weed control at 50 µg/mL with cucumber downy mildew (protectant activity) came to 20%.
Turning to `COc1cc(CCNc2ncnc(C(F)F)c2Cl)ccc1Oc1ccc(Cl)cc1` [II-10583], the pest or weed control at 600 ppm with carmine spider mite (Tetranychus cinnabarinus, 72 h, 600 ppm, mortality after 72 hrs) was determined as 100%; in assay [1] (600 ppm, death rate after 48 hrs) it was 100%; with Diamond back moth (600 ppm, mortality after 72 hrs, read-out: control (test results against diamond back moth)), 100%; in the assay on armyworm (600 ppm, mortality after 72 h) it was 100%. Also, the inhibition at 25 ppm with rice blast lay within 80 to 99%. Also, in [1] (setting [6]), the pest or weed control at 10 µg/mL was 100%. Moreover, the pest or weed control at 100 µg/mL (in [1] (setting [7]); with wheat powdery mildew (protectant activity); in the assay with cucumber downy mildew (protectant activity)) was 100% in each case. Moreover, the pest or weed control at 600 µg/mL in [1] (setting [8]) is 100%. The pest or weed control at 10 ppm in [1] (10 ppm, death rate after 48 hrs) was found to be 100%. Also, the pest or weed control at 100 ppm in [1] (100 ppm, death rate after 48 hrs) is 100%; with corn rust (read-out: protectant activity against corn rust in vivo, 100 ppm), 100%; in the assay with wheat powdery mildew (read-out: protectant activity against wheat powdery mildew in vivo, 100 ppm), 100%; with cucumber downy mildew (read-out: protectant activity against cucumber downy mildew in vivo, 100 ppm), 100%. Besides, the pest or weed control at 25 ppm with corn rust (read-out: protectant activity against corn rust in vivo, 25 ppm) was 80 to 99%; in the assay on wheat powdery mildew (read-out: protectant activity against wheat powdery mildew in vivo, 25 ppm), 100%; with cucumber downy mildew (read-out: protectant activity against cucumber downy mildew in vivo, 25 ppm) it was 80 to 99%. Further, the pest or weed control at 400 ppm in the assay on corn rust (read-out: protectant activity against corn rust in vivo, 400 ppm) is 100%; in the assay with wheat powdery mildew (read-out: protectant activity against wheat powdery mildew in vivo, 400 ppm), 100%; in the assay with cucumber downy mildew (read-out: protectant activity against cucumber downy mildew in vivo, 400 ppm) it was 100%. The pest or weed control at 6.25 µg/mL with wheat powdery mildew (read-out: control effect against wheat powdery mildew (%), 6.25 mg/L, protectant activity) stood at 100%; with cucumber downy mildew (read-out: control effect against cucumber downy mildew (%), 6.25 mg/L, protectant activity) it was 95%. Besides, the pest or weed control at 25 µg/mL in the assay on wheat powdery mildew (read-out: control effect against wheat powdery mildew (%), 25 mg/L, protectant activity) stood at 100%; with cucumber downy mildew (protectant activity), 95%. Besides, the pest or weed control at 400 µg/mL with wheat powdery mildew (protectant activity) and in the assay with cucumber downy mildew (setting [10]) was 100% each time. For the same molecule, the pest or weed control at 6.25 ppm in the assay on wheat powdery mildew (read-out: protectant activity against wheat powdery mildew in vivo, 6.25 ppm) was 100%; in the assay with cucumber downy mildew (read-out: protectant activity against cucumber downy mildew in vivo, 6.25 ppm), 80 to 99%. Moreover, in the assay on cucumber downy mildew (read-out: control effect against cucumber downy mildew (%), 12.5 mg/L, protectant activity), the pest or weed control at 12.5 µg/mL was determined as 95%. Also, the pest or weed control at 50 µg/mL in the assay on cucumber downy mildew (protectant activity) was 100%. Besides, the pest or weed control at 12.5 ppm in the assay on cucumber downy mildew (read-out: protectant activity against cucumber downy mildew in vivo, 12.5 ppm) was 80 to 99%. Further, in the assay with cucumber downy mildew (read-out: protectant activity against cucumber downy mildew in vivo, 50 ppm), the pest or weed control at 50 ppm was 80 to 99%.
